Experimental data taken from patent publication US20230210803A1, “TRANS-CROCETIN COMPOSITIONS AND TREATMENT REGIMENS” (L.E.A.F. HOLDINGS GROUP LLC, priority 2020, published 2023).

What was measured:
[1] = mouse, in vivo, iv, 50 mg/kg
[2] = Liposomal CTC and MTC PK in mice; parameters: species or system Balb/c mice; settings: mouse, in vivo
Description: 5 μL of each plasma sample was mixed with 395 μL methanol containing 1% formic acid. Sample mixtures were well mixed by vortexing. […] Samples were vortexed and then centrifuged at 10000 RPM for 10 min at room temperature. 200 μL of supernatant was removed from each sample without disturbing pellet and analyzed by HPLC. If the amount of plasma permitted, this analysis was duplicated.
The concentration of STC in the plasma samples was quantified by standard curve constructed by analyzing plasma samples containing known amount of STC. PK profiles were analyzed.

[3] = PK of L4L-121 versus free TC in healthy mice; settings: mouse, in vivo, one intravenous injection 2.5 mg/kg (normalized to TC)
Description: […]. […] […]. […] […]

HUVECs = experiment: Reoxygenation of HUVECs under hypoxic conditions (BioTracker 520 Green Hypoxia Dye, flow cytometry); settings: continuous hypoxic conditions (1% PO2)
Description: For quantification of the hypoxia levels, cells were then incubated for 1 h with 1.5 μM BioTracker 520 Green Hypoxia Dye (Sigma-Aldrich) before being washed and stored in the hypoxia chamber for 1 h. […] Hypoxia levels were quantified with a BD Accuri™ C6 cell analyzer with a direct read-out of the BioTracker probe. The results were analyzed with FlowJo software version 10 (TreeStar).

Structure (SMILES)	T½ [1]	half-life (t1/2) [2]	half-life [3]	AUC ([3]; read-out: exposure (AUC))	reoxygenation effect (PO2) (HUVECs; 5 μg/mL TC, 30 min post-treatment)	PO2 after loss of efficacy (HUVECs; 3 h after treatment)
CC(/C=C/C=C(\C)C(=O)[O-])=C\C=C\C=C(C)\C=C\C=C(/C)C(=O)[O-].[Na+].[Na+] [STC free drug, sodium trans-crocetinate]	less than 0.5 h	half an hour				
CC(/C=C/C=C(\C)C(=O)O)=C\C=C\C=C(C)\C=C\C=C(/C)C(=O)O [free TC, trans-crocetin free acid]			37.1 min	2700 ng·h/mL	up to 15 % PO2	5 % PO2
